pIC50: −log10 of the molar value. ≈ marks a conversion by molar mass, not a printed value. Where “and” joins values, the source holds several entries; their conditions need not be identical. Equal values may be shown once. Read-outs that look alike come from different tables or passages of the source.
Tests used:
[1] = target: T1, full-length beta-Catenin (Uniprot ID P35222) (Homo sapiens, UniProt P35222); assay: Fluorescence polarization IC50 (beta-catenin / 5FAM-TCF4 10-53 competition); format: binding
T1 construct: 10 nM full-length beta-Catenin (Uniprot ID P35222)
T1 sequence (P35222 1-781): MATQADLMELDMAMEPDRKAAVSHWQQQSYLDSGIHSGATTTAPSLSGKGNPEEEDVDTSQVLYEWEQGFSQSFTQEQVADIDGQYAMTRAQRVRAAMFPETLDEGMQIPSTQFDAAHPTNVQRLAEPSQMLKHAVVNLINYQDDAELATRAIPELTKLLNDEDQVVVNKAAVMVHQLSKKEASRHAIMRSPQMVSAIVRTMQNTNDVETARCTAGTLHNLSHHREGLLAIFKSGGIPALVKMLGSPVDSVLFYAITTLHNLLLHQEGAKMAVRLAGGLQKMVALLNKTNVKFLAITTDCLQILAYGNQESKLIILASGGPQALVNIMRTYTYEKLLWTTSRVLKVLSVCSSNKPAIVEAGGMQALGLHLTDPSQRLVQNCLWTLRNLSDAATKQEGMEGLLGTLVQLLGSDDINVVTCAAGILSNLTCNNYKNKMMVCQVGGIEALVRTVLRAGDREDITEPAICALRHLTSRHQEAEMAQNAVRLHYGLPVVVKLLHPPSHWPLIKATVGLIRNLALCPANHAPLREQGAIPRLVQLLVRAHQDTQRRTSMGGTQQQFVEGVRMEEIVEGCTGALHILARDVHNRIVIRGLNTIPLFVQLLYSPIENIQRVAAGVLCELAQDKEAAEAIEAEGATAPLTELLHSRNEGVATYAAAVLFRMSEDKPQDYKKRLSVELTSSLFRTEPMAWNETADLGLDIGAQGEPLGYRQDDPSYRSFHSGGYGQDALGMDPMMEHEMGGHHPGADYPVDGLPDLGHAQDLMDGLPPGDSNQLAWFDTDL

CHI Log D procedure = format: physicochemical; conditions: for chromatographic logD: pH 7.4, CHI Log D
Solubility in PBS = format: physicochemical
Method in brief: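 The PBS solution was ultracentrifuged and the supernatant analyzed by HPLC. Its peak area was divided by that of a 50 μM peptide DMSO reference injection and multiplied by 50 uM to give solubility.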

[2] = target: T2, beta-catenin/TCF4 engagement (Homo sapiens, UniProt P35222); assay: Nano-BRET target engagement assay (B-cat-Halo & TCF4-Luc in HEK293 cells); format: cell-based; conditions: read-out: NanoBRET Abs IC50
T2 construct: expressed in transfected cells; host or cells: HEK293
T2 sequence (P35222 1-781): T1 sequence (P35222 1-781)

[3] = system: TCF/LEF luciferase Reporter in DLD1 cells; assay: TCF reporter assay (DLD1 TCF/LEF luciferase reporter, Bright-Glo); format: cell-based; conditions: for DLD1 TCF c2 BrightGlo % Inhibition: replicates
Method in brief: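 DLD1 cells stably carrying a TCF/LEF luciferase reporter were plated at 5000 cells/well in RPMI + 4% FBS and treated overnight with a 1:2 compound dilution series. Bright-Glo luminescence read on day 3; viability by CellTiter-Glo. Absolute IC50 determined.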

[4] = absolute IC50, read-out: DLD1 reporter assay Abs IC50
[5] = first dose = 20 uM (plate map), 20 µM
[6] = read-out: DLD1 4% Abs IC50, DLD1 4%
[7] = third dose = 5 uM (plate map), 5 µM

Row | SMILES | pIC50 ([1]; fluorescence polarization, beta-catenin, read-out: FP EC50) | pIC50 ([1]; read-out: beta-Catenin FP IC50) | CHI Log D (CHI Log D procedure; pH 7.4) | Solubility (Solubility in PBS) | pIC50 ([2]; absolute IC50) | pIC50 [2] | pIC50 [3, 4] | chromatographic logD (CHI Log D procedure) | Solubility (Solubility in PBS; Solubility (uM)) | DLD1 TCF c2 BrightGlo % Inhibition [3, 5] | pIC50 [3, 6] | DLD1 TCF c2 BrightGlo % Inhibition ([3]; 0.625 µM) | DLD1 TCF c2 BrightGlo % Inhibition ([3]; 1.25 µM) | DLD1 TCF c2 BrightGlo % Inhibition ([3]; 2.5 µM) | DLD1 TCF c2 BrightGlo % Inhibition ([3]; 10 µM) | DLD1 TCF c2 BrightGlo % Inhibition [3, 7]
1 | CC(=O)N1CCC[C@]12CC=CCCCC1(CCCC=CCCCCCC[C@@](C)(C(=O)N[C@@H](Cc3ccccc3Cl)C(=O)N[C@@H](Cc3csc4ccccc34)C(=O)N[C@@H](CCC(N)=O)C(N)=O)NC(=O)[C@H]([C@@H](C)O)NC(=O)[C@H](Cc3ccccc3)NC(=O)[C@H](C)NC(=O)[C@H](C)NC(=O)[C@H](CC(=O)O)NC(=O)[C@H](CC(=O)O)NC1=O)NC(=O)[C@H](CC(C)(C)C)NC(=O)[C@H](CC(=O)O)NC2=O (stereo partly drawn) [I-1087, Ac-PL3-Asp-Npg-B5-Asp-Asp-Ala-Ala-Phe-Thr-S8-2C1F-BztA-Gln-NH2] | 8.05 | 8.05 | 2.766 | 44 µM (≈ 83.2 µg/mL) | 5.03 | 5.03 | < 4.70 |  |  |  |  |  |  |  |  | 
2 | CC(=O)N1CCC[C@]12CC=CCCCC1(CCCC=CCCCCCC[C@@](C)(C(=O)N[C@@H](Cc3ccccc3Cl)C(=O)N[C@@H](Cc3csc4ccccc34)C(=O)N[C@@H](CCO)C(N)=O)NC(=O)[C@H](CCO)NC(=O)[C@H](Cc3ccccc3)NC(=O)[C@H](C)NC(=O)[C@H](C)NC(=O)[C@H](CN(CC(=O)O)CC(F)(F)F)NC(=O)[C@H](CC(=O)O)NC1=O)NC(=O)[C@H](CC(C)(C)C)NC(=O)[C@H](CC(=O)O)NC2=O (stereo partly drawn) [I-1000, Ac-PL3-Asp-Npg-B5-Asp-TfeGA-Ala-Ala-Phe-Hse-S8-2C1F-BztA-Hse-NH2] |  | 7.74 |  |  | 4.62 |  | 5.10 | 2.97 | 44 µM (≈ 86.9 µg/mL) | 79.5% (2×) and 79.7% | 5.72 | −3.4% and 2.4% and 4.9% | −0.6% and −1.2% and 1.5% | 5.5% and 10.2% and 12.4% | 57.0% and 59.8% and 61.4% | 25.7% and 29.9% and 32.3%
3 | CC(=O)N1CCC[C@]12CC=CCCCC1(CCCC=CCCCOC(=O)N3CC[C@@](C(=O)N[C@@H](Cc4ccccc4Cl)C(=O)N[C@@H](Cc4csc5ccccc45)C(=O)N[C@@H](CCC(N)=O)C(N)=O)(C3)NC(=O)[C@H](CC(N)=O)NC(=O)[C@H](Cc3ccccc3)NC(=O)[C@H](C)NC(=O)[C@H](CC(C)C)NC(=O)[C@H](CN(CC(=O)O)CC(F)(F)F)NC(=O)[C@H](CC(=O)O)NC1=O)NC(=O)[C@H](CC(C)(C)C)NC(=O)[C@H](CC(=O)O)NC2=O (stereo partly drawn) [I-1007, Ac-PL3-Asp-Npg-B5-Asp-TfeGA-Leu-Ala-Phe-Asn-PyrS2-2C1F-BztA-Gln-NH2] |  | 8.22 |  |  | 4.60 |  | 5.48 | 2.45 | 18 µM (≈ 37.8 µg/mL) |  |  |  |  |  |  | 
4 | CC(=O)N1CCC[C@]12CC=CCCCC1(CCCC=CCCCOC(=O)N3CC[C@@](C(=O)N[C@@H](Cc4ccccc4Cl)C(=O)N[C@@H](Cc4csc5ccccc45)C(=O)N[C@@H](C)CO)(C3)NC(=O)[C@H](CC(N)=O)NC(=O)[C@H](Cc3ccccc3)NC(=O)[C@H](C)NC(=O)[C@H](C)NC(=O)[C@H](CC(=O)O)NC(=O)[C@H](CC(=O)O)NC1=O)NC(=O)[C@H](CC(C)(C)C)NC(=O)[C@H](CC(=O)O)NC2=O (stereo partly drawn) [I-1081, Ac-PL3-Asp-Npg-B5-Asp-Asp-Ala-Ala-Phe-Asn-PyrS2-2C1F-BztA-Alao1] |  | 8.30 |  |  | 4.78 |  | 5.00 | 2.4 | 43 µM (≈ 80.7 µg/mL) | 67.2% and 69.3% and 72.3% | 4.97 | 9.2% and 7.1% and 11.5% | 0.8% and 2.4% and 5.4% | 4.5% and 7.9% and 15.2% | 45.6% and 49.8% and 55.3% | 17.5% and 23.8% and 31.0%
5 | CC(=O)N1CCC[C@]12CC=CCCCC1(CCCC=CCCCOC(=O)N3CC[C@@](C(=O)N[C@@H](Cc4ccccc4Cl)C(=O)N[C@@H](Cc4csc5ccccc45)C(=O)N[C@@H](CO)C(N)=O)(C3)NC(=O)[C@H](CO)NC(=O)[C@H](Cc3ccccc3)NC(=O)[C@H](C)NC(=O)[C@H](C)NC(=O)[C@H](CC(=O)O)NC(=O)[C@H](CC(=O)O)NC1=O)NC(=O)[C@H](Cc1ccccc1)NC(=O)[C@H](CC(=O)O)NC2=O (stereo partly drawn) [I-1051, Ac-PL3-Asp-Phe-B5-Asp-Asp-Ala-Ala-Phe-Ser-PyrS2-2C1F-BztA-Ser-NH2] |  | 7.85 |  |  | < 4.70 |  | < 4.70 | 2.23 | 48 µM (≈ 91.1 µg/mL) | 20.2% and 21.7% and 24.7% |  | −1.7% and −3.4% and 0.0% | −12.2% and −5.2% and −3.8% | −12.5% and −11.1% and −13.2% | 3.9% and 5.0% and −0.5% | −4.1% and −5.0% and −11.4%

Source: patent US20240116985A1, “STAPLED PEPTIDES AND METHODS THEREOF” (priority 2020, published 2024)
